Reference: patent US20210198258A1, “INTEGRIN ANTAGONISTS” (Oxurion NV, priority 2018, published 2021)

Experiments:
[1] = test system: RPE-choroid sclera explants; conditions: read-out: IC50 vessel outgrowth; murine choroid explants in fibrin gel, 3 to 4 days
Excerpt: The assay is based on a murine microvascular angiogenesis explant model, which closely mimics in viva choroidal angiogenesis. […] The choroidal explant model or briefly EMCA model allows for rapid evaluation of new anti-angiogenic therapeutics, with the additional benefit of excluding the potential lack of exposure often encountered when testing small molecules in animal eyes. RPE-choroid sclera explants (hereinafter referred to as choroid explants) are embedded in a three-dimensional fibrinogen/fibrin gel. Addition of serum-containing medium induces extensive endothelial cell sprout outgrowth into the matrix after 3 to 4 days in culture.
All experiments were performed using 4 to 5-weeks old male C57BL/6J mice (Charles River Laboratories France), housed under standard laboratory conditions according to a normal day/night rhythm with ad libitum access to food and water. […]
After 3 to 4 days, bright field pictures were taken at 2.5× magnification with the Axio Vert.A1 inverted microscope (Zeiss) using ZEN lite 2012 microscope software (Zeiss). […] Further analysis was performed in Microsoft Excel, where the sprouting area of endothelial organotypic culture was quantified by subtracting the area of the tissue explant from the total area occupied by the sprouts.

[2] = test system: human umbilical vein endothelial cells (HUVECs); assay: ORIS Cell Migration Assay; assay type: cell-based; conditions: HUVEC, fibronectin-coated plates, 24 h migration
Experimental: Endothelial cell wound healing is mediated by endothelial cell migration and proliferation, both critical components of the angiogenesis process, and is routinely used as a surrogate model for in vitro angiogenic potential. The ORIS™ Cell Migration Assay was used with human umbilical vein endothelial cells (HUVECs).
HUVEC cells (SCCE-001, Cat no. 1000519, Merck Chemicals) were cultured in T175 flasks (Cat no 353112, falcon) in EndoGro Growth Medium (SCME-003, Merck Chemicals) and split when they reached 90-100% confluence.
For the assay, cells were used at passage 2 to 4 after thawing and at 80-90% confluency. At the beginning of the day, the fibronectin-coated Oris™ Cell Migration Assay Plates (Cat no #CMAFN.I01, AMS Biotechnology) were removed from refrigeration and placed at RT for 1 h. […]
Just prior to the end of the incubation, a 4 μg/mL calcein AM (Cat no 354217, Beckton Dickinson) solution was prepared in pre-warmed HBSS (Cat no 14025, Gibco). […] After incubation the fluorescence was read at 494 nm excitation and 517 nm emission wavelengths using the Flexstation and the SofiMax Pro 5.4.5 software (Molecular Devices). The fluorescence was read from the bottom of the plates with the lid on to keep them sterile. The masks were then removed and pictures were taken with the Axiovert fluorescence microscope (Zeiss) using reflected light, GFP and a 2.5× objective.

For `CC(C)[C@H]1C(=O)N[C@@H](CCCN=C(N)N)C(=O)NCC(=O)N[C@@H](CC(=O)O)C(=O)N[C@H](Cc2ccccc2)C(=O)N1C` [Cilengitide], the IC50 [1] was about 300 µM and the IC50 [2] was 100 µM.
